Test results: patent US20230021483A1, “[…] […] METHOD AND CLASSIFICATION OF PHARMACEUTICAL COMPONENTS BY USING TRANSCRIPTOMES” (National Institutes of Biomedical Innovation, Health and …, priority 2016, published 2023)

Test system: preferentially upregulated genes in LV, SP, LN
Assay: Z-score-based differential gene expression analysis (adjuvant group- or adjuvant-associated genes, 40 module mapping, TargetMine annotation)
Type: in vivo, C57BL/6 mice
Details: ID, LV
Text: Each sample's FC value was converted into a z-score on a gene basis by using the entire data set for each organ. The Z-score of the triplicates of interest were summed for each adjuvant. For example, the three sample z-score in the LV sample following cdiGMP administration was summed on a gene-by-gene basis, after which the summed scores of >3 genes were selected as relatively preferentially expressed genes in the LV after cdiGMP administration. The following threshold was applied for selections. […] G2^LV: ALM_IP(z>1) & bCD(z>1) & ENDCN(z>1) & FCA(z>1). […] G4^LV: MALP2s(z>3). […] G2^SP: ENDCN_x2+ENDCN_x3(z>2) & ALM_IP(z>3) & bCD(z>3). […] G4^SP: ADX_ID_x2+ADX_ID_x3(z>2) & ADX_IP(z>3) & MALP2s(z>3). […] G2^LN: bCD(z>3) & FCA(z>3). […] G5^LN: K3(z>1.5) & K3SPG_x1+K3SPG_x2(z>1) & D35_x1+D35_x3(z>1). G6^LN: AddaVax(z>3).

Poly_IC
Adar 1425405_a_at (Group G1, Modules 20) (sample x1): 3.45 | Adar 1434268_at (Group G1, Modules 20) (sample x1): 2.82 | Ddx58 1436562_at (Group G1, Modules 20) (sample x1): 2.92 | Ddx58 1456890_at (Group G1, Modules 20) (sample x1): 3.02 | Eif2ak2 1422005_at (Group G1, Modules 20) (sample x1): 2.89 | G3bp2 1421323_a_at (Group G1, Modules 20) (sample x1): 2.83 | Gm9706///Isg15 1431591_s_at (Group G1, Modules 20) (sample x1): 3.28 | H2-T10///H2-T22///H2-T9 1449875_s_at (Group G1, Modules 20) (sample x1): 2.89 | Ifih1 1426276_at (Group G1, Modules 20) (sample x1): 3.06 | Ifit1 1450783_at (Group G1, Modules 20) (sample x1): 2.54 | Ifit3 1449025_at (Group G1, Modules 20) (sample x1): 3.24 | Irf7 1417244_a_at (Group G1, Modules 20) (sample x1): 3.53 | Irgm1 1418825_at (Group G1, Modules 20) (sample x1): 2.78 | Mndal 1426906_at (Group G1, Modules 20) (sample x1): 3.14 | Pml 1448757_at (Group G1, Modules 20) (sample x1): 3.58 | Pml 1456103_at (Group G1, Modules 20) (sample x1): 3.26 | Rnf213 1455500_at (Group G1, Modules 20) (sample x1): 2.64 | Rsad2 1436058_at (Group G1, Modules 20) (sample x1): 3 | Shisa5 1423986_a_at (Group G1, Modules 20) (sample x1): 2.5 | Shisa5 1437503_a_at (Group G1, Modules 20) (sample x1): 2.49 | Stat1 1450033_a_at (Group G1, Modules 20) (sample x1): 2.73 | Stat1 1450034_at (Group G1, Modules 20) (sample x1): 2.89 | Tdrd7 1426716_at (Group G1, Modules 20) (sample x1): 3.28 | Tor1aip2 1418115_s_at (Group G1, Modules 20) (sample x1): 2.38 | Tor1aip2 1418116_at (Group G1, Modules 20) (sample x1): 2.73 | Tor1aip2 1435526_at (Group G1, Modules 20) (sample x1): 2.88 | Trim12a 1437432_a_at (Group G1, Modules 20) (sample x1): 3.39 | Uba7 1426970_a_at (Group G1, Modules 20) (sample x1): 3 | Adar 1425405_a_at (Group G1, Modules 20) (sample x2): 2.75 | Adar 1434268_at (Group G1, Modules 20) (sample x2): 2.17 | Ddx58 1436562_at (Group G1, Modules 20) (sample x2): 2.82 | Ddx58 1456890_at (Group G1, Modules 20) (sample x2): 2.77 | Eif2ak2 1422005_at (Group G1, Modules 20) (sample x2): 2.87 | G3bp2 1421323_a_at (Group G1, Modules 20) (sample x2): 2.85 | Gm9706///Isg15 1431591_s_at (Group G1, Modules 20) (sample x2): 3.62 | H2-T10///H2-T22///H2-T9 1449875_s_at (Group G1, Modules 20) (sample x2): 3.28 | Ifih1 1426276_at (Group G1, Modules 20) (sample x2): 3.34 | Ifit1 1450783_at (Group G1, Modules 20) (sample x2): 2.35 | Ifit3 1449025_at (Group G1, Modules 20) (sample x2): 3.25 | Irf7 1417244_a_at (Group G1, Modules 20) (sample x2): 3.38 | Irgm1 1418825_at (Group G1, Modules 20) (sample x2): 2.84 | Mndal 1426906_at (Group G1, Modules 20) (sample x2): 2.4 | Pml 1448757_at (Group G1, Modules 20) (sample x2): 3.3 | Pml 1456103_at (Group G1, Modules 20) (sample x2): 2.5 | Rnf213 1455500_at (Group G1, Modules 20) (sample x2): 3.01 | Rsad2 1436058_at (Group G1, Modules 20) (sample x2): 3.3 | Shisa5 1423986_a_at (Group G1, Modules 20) (sample x2): 2.99 | Shisa5 1437503_a_at (Group G1, Modules 20) (sample x2): 2.66 | Stat1 1450033_a_at (Group G1, Modules 20) (sample x2): 2.67 | Stat1 1450034_at (Group G1, Modules 20) (sample x2): 3.04 | Tdrd7 1426716_at (Group G1, Modules 20) (sample x2): 3.24 | Tor1aip2 1418115_s_at (Group G1, Modules 20) (sample x2): 2.68 | Tor1aip2 1418116_at (Group G1, Modules 20) (sample x2): 2.94 | Tor1aip2 1435526_at (Group G1, Modules 20) (sample x2): 2.62 | Trim12a 1437432_a_at (Group G1, Modules 20) (sample x2): 3.59 | Uba7 1426970_a_at (Group G1, Modules 20) (sample x2): 3.13 | Adar 1425405_a_at (Group G1, Modules 20) (sample x3): 1.58 | Adar 1434268_at (Group G1, Modules 20) (sample x3): 1.28 | Ddx58 1436562_at (Group G1, Modules 20) (sample x3): 1.64 | Ddx58 1456890_at (Group G1, Modules 20) (sample x3): 1.87 | Eif2ak2 1422005_at (Group G1, Modules 20) (sample x3): 1.83 | G3bp2 1421323_a_at (Group G1, Modules 20) (sample x3): 1.31 | Gm9706///Isg15 1431591_s_at (Group G1, Modules 20) (sample x3): 2.13 | H2-T10///H2-T22///H2-T9 1449875_s_at (Group G1, Modules 20) (sample x3): 2.21 | Ifih1 1426276_at (Group G1, Modules 20) (sample x3): 2.12 | Ifit1 1450783_at (Group G1, Modules 20) (sample x3): 1.28 | Ifit3 1449025_at (Group G1, Modules 20) (sample x3): 1.95 | Irf7 1417244_a_at (Group G1, Modules 20) (sample x3): 2.38 | Irgm1 1418825_at (Group G1, Modules 20) (sample x3): 1.84 | Mndal 1426906_at (Group G1, Modules 20) (sample x3): 2.37 | Pml 1448757_at (Group G1, Modules 20) (sample x3): 2 | Pml 1456103_at (Group G1, Modules 20) (sample x3): 2.12 | Rnf213 1455500_at (Group G1, Modules 20) (sample x3): 1.47 | Rsad2 1436058_at (Group G1, Modules 20) (sample x3): 1.97 | Shisa5 1423986_a_at (Group G1, Modules 20) (sample x3): 1.61 | Shisa5 1437503_a_at (Group G1, Modules 20) (sample x3): 1.52 | Stat1 1450033_a_at (Group G1, Modules 20) (sample x3): 1.92 | Stat1 1450034_at (Group G1, Modules 20) (sample x3): 1.94 | Tdrd7 1426716_at (Group G1, Modules 20) (sample x3): 1.44 | Tor1aip2 1418115_s_at (Group G1, Modules 20) (sample x3): 1.13 | Tor1aip2 1418116_at (Group G1, Modules 20) (sample x3): 0.96 | Tor1aip2 1435526_at (Group G1, Modules 20) (sample x3): 1.58 | Trim12a 1437432_a_at (Group G1, Modules 20) (sample x3): 2.9 | Uba7 1426970_a_at (Group G1, Modules 20) (sample x3): 1.71
